Test results from patent publication US8658599B2, “Peptide for the prophylactic or therapeutic treatment of skin tumors in initial stages” (Digna Biotech, S.L., priority 2009, dated 2014).
Where no end group is shown, it is not given here.

Key:
TGF-β1 = biological target: T1, TGF-β1 (Homo sapiens, UniProt P01137); details: shown previously, WO 00/31135; cited from earlier work
T1 construct: host or cells: My-1-Lu cell line (so in the source)

normal skin = tested on: normal skin; design: species or system mice; details: mouse, in vivo
Description: In order to test the possible tumor-promoting effect of disitertide, TPA was replaced by a treatment with a topical formulation cream containing disitertide (group 2, consisting of 5 animals) or with vehicle only (group 1, consisting of 5 mice) during the promotion phase of chemical carcinogenesis. Similarly, the possible carcinogenic activity of disitertide was analyzed in a group of 5 mice by repeated applications of disitertide every 2 days for 23 weeks. Since papillomas appear at around 7-8 weeks post-initiation, mice initiated with DMBA and promoted with TPA were further treated with disitertide every 2 days for 4 and 12 weeks (groups 5 and 6, respectively, 10 animals each), in order to test whether disitertide could prevent skin carcinogenesis. Treatment with disitertide started in the same week in which mice were initiated with DMBA (week 0), and applications with this and TPA were performed on alternate days. As a control, a group of mice (group 4, consisting of 5 animals) were treated with vehicle only (control cream) for 12 weeks. Finally, a group of animals with tumors (group 7, consisting of 10 animals) were treated with disitertide every 2 days for 20 weeks from week 12 to week 32 after initiation with DMBA. This group of mice was included in order to test a possible anti-tumor effect of the peptide. […]

[1] = tested on: skin tumors in mice initiated with DMBA; test: Tumor-promoting effect: TPA replaced by disitertide cream in DMBA-initiated mice; type: in vivo, Swiss albino mice; details: group 2
Description: The tumors were induced on the shaved dorsal skin of mice aged 6-8 weeks through a single topical application of DMBA (32 μg in 200 μl of acetone), followed by treatment twice a week with 12.5 μg of TPA in 200 μl of acetone (10^−4 M) for 12 weeks. In addition, groups of mice were treated with a topical formulation in the form of cream that contained disitertide or not, as specified below. Each week the number of tumors bigger than 2 mm in diameter were recorded in each mouse. At the end of the experiment, the animals were anesthetized and killed (32 weeks after the initiation with DMBA), and the tumors were fixed in 10% formaldehyde and embedded in paraffin for the histological studies.
In order to test the possible tumor-promoting effect of disitertide, TPA was replaced by a treatment with a topical formulation cream containing disitertide (group 2, consisting of 5 animals) or with vehicle only (group 1, consisting of 5 mice) during the promotion phase of chemical carcinogenesis. Similarly, the possible carcinogenic activity of disitertide was analyzed in a group of 5 mice by repeated applications of disitertide every 2 days for 23 weeks. Since papillomas appear at around 7-8 weeks post-initiation, mice initiated with DMBA and promoted with TPA were further treated with disitertide every 2 days for 4 and 12 weeks (groups 5 and 6, respectively, 10 animals each), in order to test whether disitertide could prevent skin carcinogenesis. Treatment with disitertide started in the same week in which mice were initiated with DMBA (week 0), and applications with this and TPA were performed on alternate days. As a control, a group of mice (group 4, consisting of 5 animals) were treated with vehicle only (control cream) for 12 weeks. Finally, a group of animals with tumors (group 7, consisting of 10 animals) were treated with disitertide every 2 days for 20 weeks from week 12 to week 32 after initiation with DMBA. This group of mice was included in order to test a possible anti-tumor effect of the peptide. Disitertide was applied at a dose of 60 μg in 200 μl of the topical formulation as cream, except for mice of group 7 in which the dose of disitertide was increased up to 120 μg (in 400 μl of cream).

T1 sequence (P01137 279-390 limits assumed, species assumed): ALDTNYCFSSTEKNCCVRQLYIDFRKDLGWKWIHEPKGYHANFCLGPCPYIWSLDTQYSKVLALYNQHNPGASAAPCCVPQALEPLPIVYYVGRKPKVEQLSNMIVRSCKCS

Substance | Capacity to act as TGF-β1 inhibitor (TGF-β1) | Effect on normal skin after repeated applications (normal skin) | Mean number of tumors per mouse at week 10 post-initiation ([1]; DMBA initiation, disitertide cream as promoter instead of TPA, 12 weeks, tumors >2 mm, week 10) | Mean number of tumors per mouse at week 14 post-initiation ([1]; DMBA initiation, disitertide cream as promoter instead of TPA, 12 weeks, tumors >2 mm, week 14) | Mean number of tumors per mouse at week 25 post-initiation ([1]; DMBA initiation, disitertide cream as promoter instead of TPA, 12 weeks, tumors >2 mm, week 25) | Mean number of tumors per mouse at week 32 post-initiation ([1]; DMBA initiation, disitertide cream as promoter instead of TPA, 12 weeks, tumors >2 mm, week 32) | Tumor induction when disitertide replaces TPA as promoter ([1]; DMBA-initiated mice promoted with disitertide cream for 12 weeks)
P54: mammal homologue peptide of disitertide, SEQ ID NO: 2, amino acids 731-742 of rat type III receptor of TGF-β1 (TSLDATMIWTMM; P54 peptide) | act as TGF-β1 inhibitors |  |  |  |  |  | 
TSLDASIIWAMMQN [disitertide] |  | no deleterious effect on normal skin | 0.0 | 0.0 | 0.0 | 0.0 | no tumors were induced
